Data published in patent US20250092017A1, “2-PIPERIDYL OR 2-PYRAZOLYL SUBSTITUTED PYRIMIDINE COMPOUND SERVING AS EGFR INHIBITOR” (SUZHOU PUHE BIOPHARMA CO., LTD., priority 2022, published 2025).
Where two headings read alike, the source gives them in different places.

Tests used:
Assay type in all cases: cell-based
Ba/F3-FL-EGFR-L858R = Ba/F3-FL-EGFR-L858R (Homo sapiens, UniProt P00533, L858R, cells depend on it); assay: CellTiter-Glo proliferation, Ba/F3-FL-EGFR-L858R; conditions: 72 hours, read-out: Ba/F3-FL-EGFR-L858R IC50/nM
Chain of Ba/F3-FL-EGFR-L858R (P00533 whole entry L858R): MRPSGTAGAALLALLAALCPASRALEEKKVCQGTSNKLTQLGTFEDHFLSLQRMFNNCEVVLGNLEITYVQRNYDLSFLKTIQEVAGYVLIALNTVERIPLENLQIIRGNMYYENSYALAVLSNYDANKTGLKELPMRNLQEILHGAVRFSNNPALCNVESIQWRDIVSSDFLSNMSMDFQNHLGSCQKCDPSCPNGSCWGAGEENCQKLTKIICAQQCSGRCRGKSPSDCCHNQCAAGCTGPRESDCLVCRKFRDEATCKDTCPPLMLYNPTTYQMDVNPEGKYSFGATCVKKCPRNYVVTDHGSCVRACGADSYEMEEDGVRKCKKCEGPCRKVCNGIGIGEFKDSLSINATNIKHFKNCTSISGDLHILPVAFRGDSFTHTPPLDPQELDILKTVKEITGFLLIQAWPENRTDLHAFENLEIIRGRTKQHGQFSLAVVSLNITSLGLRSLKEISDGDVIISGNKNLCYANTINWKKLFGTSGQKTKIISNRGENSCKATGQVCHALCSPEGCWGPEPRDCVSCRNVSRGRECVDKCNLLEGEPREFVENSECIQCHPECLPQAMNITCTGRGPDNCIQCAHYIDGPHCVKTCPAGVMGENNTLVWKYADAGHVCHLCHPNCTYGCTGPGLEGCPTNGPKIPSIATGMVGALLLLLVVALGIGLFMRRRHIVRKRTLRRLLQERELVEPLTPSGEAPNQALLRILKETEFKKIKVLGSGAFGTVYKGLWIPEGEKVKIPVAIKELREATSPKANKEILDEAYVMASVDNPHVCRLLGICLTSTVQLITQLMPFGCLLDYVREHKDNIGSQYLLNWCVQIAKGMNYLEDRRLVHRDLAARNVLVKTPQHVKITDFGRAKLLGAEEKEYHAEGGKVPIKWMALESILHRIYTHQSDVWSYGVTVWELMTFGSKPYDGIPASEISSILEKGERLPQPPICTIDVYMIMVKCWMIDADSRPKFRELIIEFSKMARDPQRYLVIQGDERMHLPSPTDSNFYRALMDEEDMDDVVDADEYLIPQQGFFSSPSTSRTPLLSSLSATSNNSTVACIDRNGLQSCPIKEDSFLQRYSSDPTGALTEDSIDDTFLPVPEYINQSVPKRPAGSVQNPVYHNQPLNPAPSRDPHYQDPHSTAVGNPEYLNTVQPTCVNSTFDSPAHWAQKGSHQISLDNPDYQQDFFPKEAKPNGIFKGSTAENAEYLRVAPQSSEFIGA
Experimental: (§1) Promega CellTiter-Glo reagent was used to detect the effects of small molecule inhibitors on the proliferation of five Ba/F3 cell lines (Ba/F3-FL-EGFR, Ba/F3-FL-EGFR-L858R, Ba/F3-FL-EGFR-L858R-T790M-C797S, Ba/F3-TEL-EGFR-L858R-C797S and Ba/F3-FL-EGFR-del19-C797S).
(§2) The cell lines were cultured in an incubator at 37° C. and 5% CO2. Cells were passaged regularly and cells in the logarithmic phase were used for plating. 95 μL of cell suspension was added to each well of the cell plate, and culture medium without cells (containing 0.1% DMSO) was added to the Min control wells. Substance addition for compound detection cell plate: 5 μL of 20× compound working solution was added to the cell culture plate as shown in the table below. 50 μL of DMSO-cell culture medium mixture was added to the Max control, with the final DMSO concentration of 0.1%. 5 μL of DMSO-cell culture medium mixture was added to the Max control. The final DMSO concentration was 0.1%.
(§3) The compounds to be tested were added as per the table below
(§4) Cell viability was detected by CellTiter-Glo luminescence assay. Data analysis:
(§5) The cell proliferation inhibition rate (Inhibition Rate) data was processed using the following formula: […]
(§6) wherein: RLUDrug represents the relative luminescence unit of the cells with the addition of drug, RLUMin represents the luminescence unit of the culture medium, and RLUMax represents the relative luminescence unit of the cells with the addition of DMSO.
(§7) The inhibition rates corresponding to different concentrations of compounds were calculated in EXCEL, and then the inhibition rate curve was plotted using GraphPad Prism software and related parameters including the maximum and minimum inhibition rates of cells and IC50 values were calculated.

[1] = system: Ba/F3-FL-EGFR-del19-C797S; assay: CellTiter-Glo proliferation, Ba/F3-FL-EGFR-del19-C797S; conditions: proliferation, 72 hours, CellTiter-Glo, read-out: Ba/F3-FL-EGFR-del19-C797S IC50/nM
Experimental: as §1, §2, §3, §4, §5, §6, §7

[2] = molecular target: T1, Ba/F3-TEL-EGFR-L858R-C797S (Homo sapiens, UniProt P00533, C797S/L858R, cells depend on it); assay: CellTiter-Glo proliferation, Ba/F3-TEL-EGFR-L858R-C797S; conditions: 72 hours, read-out: Ba/F3-TEL-EGFR-L858R-C797S IC50/nM
T1 construct: fused on or other part: N-terminal TEL (ETV6) oligomerising part fused to the EGFR intracellular/kinase part; P41212 (Transcription factor ETV6)
T1 sequence (P00533 whole entry C797S/L858R, the tested form may be a part): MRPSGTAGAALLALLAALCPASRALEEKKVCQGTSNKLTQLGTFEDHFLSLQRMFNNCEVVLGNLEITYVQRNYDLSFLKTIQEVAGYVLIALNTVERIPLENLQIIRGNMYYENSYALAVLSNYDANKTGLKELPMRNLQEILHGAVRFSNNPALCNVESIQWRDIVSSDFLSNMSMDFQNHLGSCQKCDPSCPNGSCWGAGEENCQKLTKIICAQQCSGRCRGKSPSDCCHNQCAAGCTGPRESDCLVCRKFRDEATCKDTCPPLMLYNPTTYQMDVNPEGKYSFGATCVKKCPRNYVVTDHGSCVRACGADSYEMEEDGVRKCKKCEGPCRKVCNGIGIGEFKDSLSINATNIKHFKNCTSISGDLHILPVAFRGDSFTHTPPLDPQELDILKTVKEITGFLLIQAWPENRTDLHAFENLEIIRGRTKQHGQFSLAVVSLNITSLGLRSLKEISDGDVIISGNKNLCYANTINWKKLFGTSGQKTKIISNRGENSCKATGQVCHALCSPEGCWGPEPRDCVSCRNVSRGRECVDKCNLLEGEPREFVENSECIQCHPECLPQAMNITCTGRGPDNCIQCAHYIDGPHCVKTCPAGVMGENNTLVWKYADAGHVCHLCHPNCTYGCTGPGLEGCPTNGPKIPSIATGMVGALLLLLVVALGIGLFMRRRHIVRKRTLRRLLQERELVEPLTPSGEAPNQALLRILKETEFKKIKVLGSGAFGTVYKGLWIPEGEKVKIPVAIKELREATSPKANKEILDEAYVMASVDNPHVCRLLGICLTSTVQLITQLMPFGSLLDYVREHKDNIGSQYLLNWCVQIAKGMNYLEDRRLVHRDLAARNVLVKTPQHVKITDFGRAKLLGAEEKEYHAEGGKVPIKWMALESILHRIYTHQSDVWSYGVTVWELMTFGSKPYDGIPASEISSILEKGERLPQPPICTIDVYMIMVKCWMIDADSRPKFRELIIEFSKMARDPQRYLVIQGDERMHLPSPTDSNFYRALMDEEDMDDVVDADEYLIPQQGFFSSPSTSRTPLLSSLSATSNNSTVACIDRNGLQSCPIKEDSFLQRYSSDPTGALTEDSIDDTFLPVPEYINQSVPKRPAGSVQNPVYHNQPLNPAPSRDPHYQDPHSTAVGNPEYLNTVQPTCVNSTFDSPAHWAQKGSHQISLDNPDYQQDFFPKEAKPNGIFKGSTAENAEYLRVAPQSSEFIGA
Experimental: as §1, §2, §3, §4, §5, §6, §7

[3] = molecular target: Ba/F3-FL-EGFR-L858R-T790M-C797S (Homo sapiens, UniProt P00533, T790M/C797S/L858R, cells depend on it); assay: CellTiter-Glo proliferation, Ba/F3-FL-EGFR-L858R-T790M-C797S; conditions: 72 hours, read-out: Ba/F3-FL-EGFR-L858R-T790M-C797S IC50/nM
Chain of Ba/F3-FL-EGFR-L858R-T790M-C797S (P00533 whole entry T790M/C797S/L858R): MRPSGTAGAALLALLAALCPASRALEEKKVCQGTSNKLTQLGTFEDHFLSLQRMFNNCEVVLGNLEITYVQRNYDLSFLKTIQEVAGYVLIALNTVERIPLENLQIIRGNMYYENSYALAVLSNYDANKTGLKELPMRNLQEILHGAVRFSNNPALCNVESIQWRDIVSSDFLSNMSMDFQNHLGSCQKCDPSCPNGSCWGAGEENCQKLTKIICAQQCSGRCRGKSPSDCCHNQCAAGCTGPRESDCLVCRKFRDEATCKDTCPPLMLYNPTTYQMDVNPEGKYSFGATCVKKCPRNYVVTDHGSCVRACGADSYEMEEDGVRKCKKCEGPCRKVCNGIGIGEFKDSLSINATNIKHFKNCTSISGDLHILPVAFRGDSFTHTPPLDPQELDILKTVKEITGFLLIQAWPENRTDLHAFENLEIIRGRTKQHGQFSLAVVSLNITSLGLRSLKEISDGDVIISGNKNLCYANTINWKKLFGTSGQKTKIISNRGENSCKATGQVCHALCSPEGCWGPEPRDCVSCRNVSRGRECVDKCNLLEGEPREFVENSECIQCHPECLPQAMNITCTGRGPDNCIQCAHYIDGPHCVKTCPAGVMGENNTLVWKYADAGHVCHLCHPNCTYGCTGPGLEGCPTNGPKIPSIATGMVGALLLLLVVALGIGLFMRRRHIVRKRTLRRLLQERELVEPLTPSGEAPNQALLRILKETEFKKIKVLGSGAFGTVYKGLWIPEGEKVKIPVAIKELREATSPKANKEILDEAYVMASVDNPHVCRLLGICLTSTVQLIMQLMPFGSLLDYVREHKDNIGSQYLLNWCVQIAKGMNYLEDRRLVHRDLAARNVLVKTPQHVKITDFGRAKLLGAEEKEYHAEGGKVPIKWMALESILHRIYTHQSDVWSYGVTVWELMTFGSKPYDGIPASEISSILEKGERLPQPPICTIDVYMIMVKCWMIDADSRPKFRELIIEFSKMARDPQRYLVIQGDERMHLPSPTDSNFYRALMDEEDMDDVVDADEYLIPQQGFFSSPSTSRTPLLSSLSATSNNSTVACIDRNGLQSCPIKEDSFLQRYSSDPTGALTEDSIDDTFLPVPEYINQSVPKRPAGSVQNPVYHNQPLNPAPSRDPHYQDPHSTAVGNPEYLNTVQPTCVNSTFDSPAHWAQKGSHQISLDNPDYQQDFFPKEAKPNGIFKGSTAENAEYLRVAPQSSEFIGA
Experimental: as §1, §2, §3, §4, §5, §6, §7

Ba/F3-FL-EGFR = molecular target: T2, Ba/F3-FL-EGFR (Homo sapiens, UniProt P00533); assay: CellTiter-Glo proliferation, Ba/F3-FL-EGFR; conditions: 72 hours, read-out: Ba/F3-FL-EGFR IC50/nM
T2 construct: FL read as full length
T2 sequence (P00533 whole entry, change not shown): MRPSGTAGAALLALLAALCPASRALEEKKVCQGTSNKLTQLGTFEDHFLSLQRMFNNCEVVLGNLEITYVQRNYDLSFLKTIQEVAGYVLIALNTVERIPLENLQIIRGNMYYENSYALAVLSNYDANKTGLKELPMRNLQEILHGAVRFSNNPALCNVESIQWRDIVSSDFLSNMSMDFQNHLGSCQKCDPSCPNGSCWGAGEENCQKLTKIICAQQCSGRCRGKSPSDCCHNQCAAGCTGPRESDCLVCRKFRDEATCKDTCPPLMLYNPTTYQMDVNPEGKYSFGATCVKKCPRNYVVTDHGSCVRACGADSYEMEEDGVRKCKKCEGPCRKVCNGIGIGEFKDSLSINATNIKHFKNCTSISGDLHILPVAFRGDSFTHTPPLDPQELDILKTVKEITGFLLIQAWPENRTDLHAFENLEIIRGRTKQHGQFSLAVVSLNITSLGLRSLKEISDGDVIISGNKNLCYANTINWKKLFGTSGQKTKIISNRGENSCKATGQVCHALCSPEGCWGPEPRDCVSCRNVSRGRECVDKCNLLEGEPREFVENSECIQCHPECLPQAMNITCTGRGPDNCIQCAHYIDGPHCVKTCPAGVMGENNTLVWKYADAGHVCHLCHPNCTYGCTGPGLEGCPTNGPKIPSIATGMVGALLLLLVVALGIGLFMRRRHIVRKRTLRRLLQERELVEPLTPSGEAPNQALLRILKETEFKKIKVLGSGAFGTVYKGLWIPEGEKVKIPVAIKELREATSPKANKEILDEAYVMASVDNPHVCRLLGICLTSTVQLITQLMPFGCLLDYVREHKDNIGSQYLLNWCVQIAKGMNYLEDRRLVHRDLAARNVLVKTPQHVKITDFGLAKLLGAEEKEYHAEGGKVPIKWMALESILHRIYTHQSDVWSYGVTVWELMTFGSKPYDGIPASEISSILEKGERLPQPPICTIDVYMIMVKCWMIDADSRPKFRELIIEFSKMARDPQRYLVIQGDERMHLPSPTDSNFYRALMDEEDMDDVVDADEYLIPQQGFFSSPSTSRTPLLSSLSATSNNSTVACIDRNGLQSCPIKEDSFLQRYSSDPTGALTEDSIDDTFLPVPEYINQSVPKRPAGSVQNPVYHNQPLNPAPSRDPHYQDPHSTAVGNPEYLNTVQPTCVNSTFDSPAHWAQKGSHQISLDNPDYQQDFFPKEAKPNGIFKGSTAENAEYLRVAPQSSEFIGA
Experimental: as §1, §2, §3, §4, §5, §6, §7

Row | SMILES | GI50 (Ba/F3-FL-EGFR-L858R) | IC50 [1] | GI50 [2] | GI50 [3] | GI50 (Ba/F3-FL-EGFR) | IC50 ([1]; 72 h)
1 | COCCS(=O)(=O)n1cc(-c2nccc(Nc3cc4c(C(C)C)ccc(N5CC(CS(C)(=O)=O)C5)c4cn3)n2)cn1 [Compound H15] | 5.7 nM | 6.6 nM | 4.3 nM | 8.6 nM | 148 nM | –
2 | CC(C)c1ccc(N2CC(CS(C)(=O)=O)C2)c2cnc(Nc3ccnc(-c4cnn(S(=O)(=O)CC5CC5)c4)n3)cc12 [Compound H14] | 71 nM | – | 28 nM | 136 nM | 721 nM | 34 nM
3 | CC(C)c1ccc(N2CC(CS(C)(=O)=O)C2)c2cnc(Nc3ccnc(-c4cnn(CC#N)c4)n3)cc12 [Compound H26] | 74 nM | – | 56 nM | 336 nM | 1420 nM | 128 nM
4 | CC(C)c1ccc(N2C[C@H](CS(C)(=O)=O)[C@H]2C)c2cnc(Nc3ccnc(-c4cnn(S(=O)(=O)CCOC5CC5)c4)n3)cc12 [Compound H31] | 50 nM | – | 55 nM | 64 nM | 503 nM | 39 nM
5 | CO[C@H]1CCN(c2nccc(Nc3cc4c(C(C)C)ccc(N5C[C@H](N(C)S(C)(=O)=O)[C@H]5C)c4cn3)n2)C[C@H]1F [Compound P40b] | 25 nM | – | 5.9 nM | 4.8 nM | 465 nM | 81 nM
6 | CCn1cc(-c2nccc(Nc3cc4c(C(C)C)ccc(N5CC(CS(C)(=O)=O)C5)c4cn3)n2)cn1 [Compound H27] | 49 nM | – | 21 nM | 322 nM | > 10000 nM | 53 nM
7 | CC(C)c1ccc(N2CC(CS(C)(=O)=O)C2)c2cnc(Nc3ccnc(-c4cnn(S(=O)(=O)C5COC5)c4)n3)cc12 [Compound H17] | 56 nM | – | 33 nM | 127 nM | 858 nM | 58 nM
8 | CC(C)c1ccc(N2CC(NS(=O)(=O)c3ccoc3)C2)c2cnc(Nc3ccnc(N4CCC(O)C(F)C4)n3)cc12 (stereo not drawn) [Compound P33] | 218 nM | – | 115 nM | 91 nM | 1500 nM | 351 nM
9 | COC1CCN(c2nccc(Nc3cc4c(C(C)C)ccc(N5CC(N(C)S(=O)(=O)C(F)(F)F)C5)c4cn3)n2)CC1F (stereo not drawn) [Compound P50] | 1890 nM | – | 542 nM | 720 nM | 6620 nM | 3510 nM
10 | CCS(=O)(=O)NC1CN(c2ccc(C(C)C)c3cc(Nc4ccnc(N5CCC(O)C(F)C5)n4)ncc23)C1 (stereo not drawn) [Compound P47] | 113 nM | – | 38 nM | 42 nM | 1610 nM | 179 nM
11 | COC1CCN(c2nccc(Nc3cc4c(C(C)C)ccc(N5C[C@H](NS(C)(=O)=O)[C@H]5C)c4cn3)n2)CC1F (stereo partly drawn) [Compound P38] | 15 nM | – | 7 nM | 5.4 nM | 540 nM | 76 nM
12 | [2H]C([2H])([2H])N([C@H]1CN(c2ccc(C(C)C)c3cc(Nc4ccnc(N5CCC(OC)C(F)C5)n4)ncc23)[C@@H]1C)S(C)(=O)=O (stereo partly drawn) [Compound P42] | 16 nM | – | 6.6 nM | 5.8 nM | 761 nM | 90 nM
13 | CC(C)c1ccc(N2CC(CS(C)(=O)=O)C2)c2cnc(Nc3ccnc(-c4cnn(C)c4)n3)cc12 [Compound H29] | 91 nM | – | 34 nM | 235 nM | 739 nM | 59 nM
14 | CC(C)c1ccc(N2CC(N(C)S(C)(=O)=O)C2)c2cnc(Nc3ccnc(-c4cnn(S(=O)(=O)C5CC5)c4)n3)cc12 [Compound H25] | 14 nM | – | 9.6 nM | 26 nM | 208 nM | 11 nM
15 | COCCS(=O)(=O)N(C)C1CN(c2ccc(C(C)C)c3cc(Nc4ccnc(N5CCC(OC)C(F)C5)n4)ncc23)C1 (stereo not drawn) [Compound P49] | 121 nM | – | 36 nM | 38 nM | 1070 nM | 316 nM
16 | COCCS(=O)(=O)n1cc(-c2nccc(Nc3cc4c(C(C)C)ccc(N5CC(CS(C)(=O)=O)C5)c4cn3)n2)cn1 [Compound H20] | 43 nM | 53 nM | 22 nM | 188 nM | 2110 nM | –
17 | CC(C)c1ccc(N2CC(NS(=O)(=O)N(C)C)C2)c2cnc(Nc3ccnc(N4CCC(O)C(F)C4)n3)cc12 (stereo not drawn) [Compound P27] | 169 nM | – | 74 nM | 64 nM | 2200 nM | 226 nM
18 | CC(=O)NC1CN(c2ccc(C(C)C)c3cc(Nc4ccnc(N5CCC(O)C(F)C5)n4)ncc23)C1 (stereo not drawn) [Compound P35] | 2520 nM | – | 1690 nM | 1660 nM | 8760 nM | 3120 nM
19 | CC(C)c1ccc(N2CC(N3CCCS3(=O)=O)C2)c2cnc(Nc3ccnc(N4CCC(O)C(F)C4)n3)cc12 (stereo not drawn) [Compound P34] | 206 nM | – | 83 nM | 78 nM | 903 nM | 234 nM
20 | CO[C@@H]1CCN(c2nccc(Nc3cc4c(C(C)C)ccc(N5C[C@H](N(C)S(C)(=O)=O)[C@H]5C)c4cn3)n2)C[C@@H]1F [Compound P40a] | 20 nM | – | 5.8 nM | 2.5 nM | 421 nM | 53 nM
21 | CC(C)c1ccc(N2CC(N(C)S(C)(=O)=O)C2)c2cnc(Nc3ccnc(N4CC[C@H](O)[C@H](F)C4)n3)cc12 [Compound P39b] | 24 nM | – | 16 nM | 14 nM | 760 nM | 60 nM
22 | CC(C)c1ccc(N2CC(CS(C)(=O)=O)C2)c2cnc(Nc3ccnc(-c4cnn(S(=O)(=O)c5ccccn5)c4)n3)cc12 [Compound H16] | 235 nM | – | 122 nM | 652 nM | 1360 nM | 264 nM
23 | CC(C)OCCS(=O)(=O)n1cc(-c2nccc(Nc3cc4c(C(C)C)ccc(N5C[C@H](CS(C)(=O)=O)[C@H]5C)c4cn3)n2)cn1 [Compound H32] | 510 nM | – | 226 nM | 397 nM | 3290 nM | 340 nM
24 | CCS(=O)(=O)N[C@H]1CN(c2ccc(C(C)C)c3cc(Nc4ccnc(N5CCC(OC)C(F)C5)n4)ncc23)[C@@H]1C (stereo partly drawn) [Compound P44] | 21 nM | – | 10 nM | 6.7 nM | 775 nM | 110 nM
25 | CCCS(=O)(=O)C[C@H]1CN(c2ccc(C(C)C)c3cc(Nc4ccnc(-c5cnn(S(=O)(=O)C6CC6)c5)n4)ncc23)[C@@H]1C [Compound H34] | 65 nM | – | 28 nM | 73 nM | 656 nM | 37 nM
26 | CCCS(=O)(=O)N(C)[C@H]1CN(c2ccc(C(C)C)c3cc(Nc4ccnc(-c5cnn(S(=O)(=O)C6CC6)c5)n4)ncc23)[C@@H]1C [Compound H33] | 14 nM | – | 5.9 nM | 13 nM | 202 nM | 7.1 nM
27 | CC(C)c1ccc(N2CC(CS(C)(=O)=O)C2)c2cnc(Nc3ccnc(-c4cnn(S(=O)(=O)C5CCOC5)c4)n3)cc12 (stereo not drawn) [Compound H24] | 42 nM | – | 12 nM | 94 nM | 458 nM | 20 nM
28 | CCOCCS(=O)(=O)n1cc(-c2nccc(Nc3cc4c(C(C)C)ccc(N5C[C@H](CS(C)(=O)=O)[C@H]5C)c4cn3)n2)cn1 [Compound H22] | 17 nM | – | 13 nM | 14 nM | 229 nM | 14 nM
29 | CCS(=O)(=O)N(C)[C@H]1CN(c2ccc(C(C)C)c3cc(Nc4ccnc(N5CCC(OC)C(F)C5)n4)ncc23)[C@@H]1C (stereo partly drawn) [Compound P43] | 36 nM | – | 9.8 nM | 5.6 nM | 593 nM | 142 nM
30 | COC1CCN(c2nccc(Nc3cc4c(C(C)C)ccc(N5CC(NS(=O)(=O)C6COC6)C5)c4cn3)n2)CC1F (stereo not drawn) [Compound P37] | 83 nM | – | 33 nM | 34 nM | 1140 nM | 339 nM
